Assay results: patent US20240124442A1, “TRICYCLIC-AMIDO-BICYCLIC PRMT5 INHIBITORS” (AMGEN INC., priority 2021, published 2024)

Assays:
HCT116 MTAP null cells = assay: HCT116 MTAP null cell line proliferation / cell viability (CellTiter-Glo, 6 days); type: cell-based; settings: 144 h; HCT116 MTAP null cells, 6 days treatment, CellTiter-Glo cell viability; read-out: HCT-116 MTAP null IC50
How it was run: (§1)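 Isogenic HCT116 parent and MTAP-knockout cells in RPMI 1640 + 10% FBS, plated overnight, then exposed to compound for 6 days (37 °C, 5% CO2). Viability by CellTiter-Glo luminescence. Dilutions: 8–9 points from 1 or 10 μM (1:3), or 22 points from 10 or 50 μM (1:2); IC50 by 4-parameter or Hill −1 fit.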

HCT116 WT cells = assay: HCT116 WT (parent) cell line proliferation / cell viability (CellTiter-Glo, 6 days); type: cell-based; settings: Homo sapiens, HCT-116, 144 h, 6 days treatment
How it was run: as §1

SMILES | IC50 (HCT116 MTAP null cells) | IC50 (HCT116 WT cells)
CN(C(=O)c1cc(F)c2nc(N)c3cnn(C)c3c2c1)[C@@H]1COc2cc(C(F)(F)F)ccc21 [Example 254, 4-amino-6-fluoro-N,1-dimethyl-N-((3S)-6-(trifluoromethyl)-2,3-dihydro-1-benzofuran-3-yl)-1H-pyrazolo[4,3-c]quinoline-8-carboxamide] | 308 nM | 20200 nM
CN(C(=O)c1ccc2nc(N)c3c(cnn3C)c2c1)[C@@H]1COc2cc(S(F)(F)(F)(F)F)ccc21 [Example 255, 4-amino-N,3-dimethyl-N-((3S)-6-(pentafluoro-lambda~6~- sulfanyl)-2,3-dihydro-1-benzo-furan-3-yl)-3H-pyrazolo[3,4-c]quinoline-8-carboxamide] | 47 nM | 2400 nM
CN(C(=O)c1cc2c(cn1)nc(N)c1c2cnn1C)[C@@H]1COc2cc(C(F)(F)F)ccc21 [Example 256, 4-amino-N,3-dimethyl-N-((3S)-6-(trifluoromethyl)-2,3-dihydro-1-benzofuran-3-yl)-3H-pyrazolo[3,4-c][1,7]naphthyr-idine-8-carboxamide] | 143 nM | 7500 nM
CN(C(=O)c1cc2c(cn1)nc(N)c1c2cnn1C)[C@@H]1COc2cc(S(F)(F)(F)(F)F)ccc21 [Example 257, 4-amino-N,3-dimethyl-N-((3S)-6-(pentafluoro-lambda~6~-sulfanyl)-2,3-dihydro-1-benzofuran-3-yl)-3H-pyrazolo[3,4-c][1,7]naph-thyridine-8-carboxamide] | 59 nM | 2020 nM
CN(C(=O)c1cc2c(cc1F)nc(N)c1c2cnn1C)[C@@H]1COc2cc(C(F)(F)F)ccc21 [Example 258, 4-amino-7-fluoro-N,3-dimethyl-N-((3S)-6-(trifluoromethyl)-2,3-dihydro-1-benzofuran-3-yl)-3H-pyrazolo[3,4-c]quinoline-8-carboxamide] | 54 nM | 4030 nM
CN(C(=O)c1cc2c(cc1F)nc(N)c1c2cnn1C)[C@@H]1COc2cc(OC(F)(F)F)ccc21 [Example 259, 4-amino-7-fluoro-N,3-dimethyl-N-((3S)-6-(trifluoromethoxy)-2,3-dihydro-1-benzofuran-3-yl)-3H-pyrazolo[3,4-c]quinoline-8-carboxamide] | 62 nM | 3240 nM
CN(C(=O)c1cc2c(cc1F)nc(N)c1c2cnn1C)[C@@H]1COc2cc(-c3cnn(C(F)(F)F)c3)ccc21 [Example 260, 4-amino-7-fluoro-N,3-dimethyl-N-((3S)-6-(1-(trifluoromethyl)-1H-pyrazol-4-yl)-2,3-dihydro-1-benzofuran-3-yl)-3H-pyrazolo-[3,4-c]quinoline-8-carboxamide] | 82 nM | 10500 nM
CN(C(=O)c1ccc2nc(N)c3cn[nH]c3c2c1)[C@@H]1COc2cc(C(F)(F)F)ccc21 [Example 261, 4-amino-N-methyl-N-((3S)-6-(trifluoromethyl)-2,3-dihydro-1-benzofuran-3-yl)-1H-pyrazolo[4,3-c]quinoline-8-carboxamide] | 15 nM | 703 nM
Cc1n[nH]c2c1c(N)nc1ccc(C(=O)N(C)[C@@H]3COc4cc(C(F)(F)F)ccc43)cc12 [Example 262, 4-amino-N,3-dimethyl-N-((3S)-6-(trifluoromethyl)-2,3-dihydro-1-benzofuran-3-yl)-1H-pyrazolo[4,3-c]quinoline-8-carboxamide] | 65 nM | 1950 nM
Cc1nn(C)c2c1c(N)nc1ccc(C(=O)N(C)[C@@H]3COc4cc(C(F)(F)F)ccc43)cc12 [Example 263, 4-amino-N,1,3-trimethyl-N-((3S)-6-(trifluoromethyl)-2,3-dihydro-1-benzofuran-3-yl)-1H-pyrazolo[4,3-c]quinoline-8-carboxamide] | 58 nM | 2010 nM
Cc1n[nH]c2c1c(N)nc1cnc(C(=O)N(C)[C@@H]3COc4cc(C(F)(F)F)ccc43)cc12 [Example 264, 4-amino-N,3-dimethyl-N-((3S)-6-(trifluoromethyl)-2,3-dihydro-1-benzofuran-3-yl)-1H-pyrazolo[4,3-c][1,7]naph-thyridine-8-carboxamide] | 70 nM | 5110 nM
Cc1nn(C)c2c1c(N)nc1cnc(C(=O)N(C)[C@@H]3COc4cc(C(F)(F)F)ccc43)cc12 [Example 265, 4-amino-N,1,3-trimethyl-N-((3S)-6-(trifluoromethyl)-2,3-dihydro-1-benzofuran-3-yl)-1H-pyrazolo[4,3-c][1,7]-naphthyridine-8-carboxamide] | 151 nM | 3850 nM
Cc1nn(C)c2c1c(N)nc1cnc(C(=O)N(C)[C@@H]3COc4cc(S(F)(F)(F)(F)F)ccc43)cc12 [Example 266, 4-amino-N,1,3-trimethyl-N-((3S)-6-(pentafluoro-lambda~6~-sulfanyl)-2,3-dihydro-1-benzofuran-3-yl)-1H-pyrazolo[4,3-c][1,7]naph-thyridine-8-carboxamide] | 70 nM | 2660 nM
Cc1nn(C)c2c1c(N)nc1cc(F)c(C(=O)N(C)[C@@H]3COc4cc(C(F)(F)F)ccc43)cc12 [Example 267, 4-amino-7-fluoro-N,1,3-trimethyl-N-((3S)-6-(trifluoro-methyl)-2,3-dihydro-1-benzo-furan-3-yl)-1H-pyrazolo[4,3-c]quinoline-8-carboxamide] | 36 nM | 1980 nM
Cc1nn(C)c2c1c(N)nc1cc(F)c(C(=O)N(C)[C@@H]3COc4cc(-c5cnn(C(F)(F)F)c5)ccc43)cc12 [Example 268] | 47 nM | 8560 nM
COc1ccc2c(c1)COC[C@H]2N(C)C(=O)c1cc2c3c(c(N)nc2cn1)[C@@H](C)OC3 [Example 269, (3R)-4-amino-N-((4S)-7-methoxy-3,4-dihydro-1H-2-benzopyran-4-yl)-N,3-dimeth-yl-1,3-dihydrofuro[3,4-c][1,7]-naphthyridine-8-carboxamide] | 39 nM | 2930 nM
C[C@H]1OCc2c1c(N)nc1cnc(C(=O)N(C)[C@@H]3COCc4nc(C(F)(F)F)ccc43)cc21 [Example 270, (3R)-4-amino-N,3-dimethyl-N-((5S)-2-(trifluoromethyl)-5,8-dihydro-6H-pyrano[3,4-b]-pyridin-5-yl)-1,3-dihydrofuro-[3,4-c][1,7]naphthyridine-8-carboxamide] | 17 nM | 740 nM
C[C@@H]1OCc2c1c(N)nc1cnc(C(=O)N(C)[C@@H]3COCc4nc(C(F)(F)F)ccc43)cc21 [Example 271, (3S)-4-amino-N,3-dimethyl-N-((5S)-2-(trifluoromethyl)-5,8-dihydro-6H-pyrano[3,4-b]-pyridin-5-yl)-1,3-dihydrofuro-[3,4-c][1,7]naphthyridine-8-carboxamide] | 956 nM | 31400 nM
CN(C(=O)c1cc2c3c(c(N)nc2cc1Cl)COC3)[C@@H]1COCc2nc(C(F)(F)F)ccc21 [Example 274, 4-amino-7-chloro-N-methyl-N-((5S)-2-(trifluoromethyl)-5,8-dihydro-6H-pyrano[3,4-b]-pyridin-5-yl)-1,3-dihydrofuro-[3,4-c]quinoline-8-carboxamide] | 4 nM | 229 nM
CN(C(=O)c1cc2c3c(c(N)nc2nc1Cl)COC3)[C@@H]1COCc2cc(C#N)ccc21 [Example 275, 4-amino-7-chloro-N-((4S)-7-cyano-3,4-dihydro-1H-2-benzopyran-4-yl)-N-methyl-1,3-dihydrofuro[3,4-c][1,8]-naphthyridine-8-carboxamide] | 83 nM | 2670 nM
CN(C(=O)c1cc2c3c(c(N)nc2nc1Cl)COC3)[C@@H]1COCc2cc(C(F)(F)F)ccc21 [Example 276, 4-amino-7-chloro-N-methyl-N-((4S)-7-(trifluoromethyl)-3,4-dihydro-1H-2-benzopyran-4-yl)-1,3-dihydrofuro[3,4-c][1,8]-naphthyridine-8-carboxamide] | 16 nM | 417 nM
Cc1cc2nc(N)c3c(c2cc1C(=O)N(C)[C@@H]1COCc2nc(C(F)(F)F)ccc21)COC3 [Example 277, 4-amino-N,7-dimethyl-N-((5S)-2-(trifluoromethyl)-5,8-dihydro-6H-pyrano[3,4-b]pyridin-5-yl)-1,3-dihydrofuro[3,4-c]quin-oline-8-carboxamide] | 5 nM | 202 nM
CN(C(=O)c1cc2c3c(c(N)nc2cc1C(F)(F)F)COC3)[C@@H]1COCc2nc(C(F)(F)F)ccc21 [Example 278, 4-amino-N-methyl-7-(trifluoro-methyl)-N-((5S)-2-(trifluoro-methyl)-5,8-dihydro-6H-pyrano[3,4-b]pyridin-5-yl)-1,3-dihydrofuro[3,4-c]quinoline-8-carboxamide] | 56 nM | 4290 nM
CN(C(=O)c1ccc2nc(N)c3ccncc3c2c1)[C@@H]1COCc2nc(C(F)(F)F)ccc21 [Example 279, 5-amino-N-methyl-N-((5S)-2-(trifluoromethyl)-5,8-dihydro-6H-pyrano[3,4-b]pyridin-5-yl)benzo[c][2,6]naphthyridine-9-carboxamide] | 17 nM | 706 nM
CN(C(=O)c1ccc2nc(N)c3ncncc3c2c1)[C@@H]1COCc2nc(C(F)(F)F)ccc21 [Example 280, 5-amino-N-methyl-N-((5S)-2-(trifluoromethyl)-5,8-dihydro-6H-pyrano[3,4-b]pyridin-5-yl)pyrimido[4,5-c]quinoline-9-carboxamide] | 461 nM | 5050 nM
CN(C(=O)c1cc2c(cn1)nc(N)c1ccncc12)[C@@H]1COCc2nc(C(F)(F)F)ccc21 [Example 281, 5-amino-N-methyl-N-((5S)-2-(trifluoromethyl)-5,8-dihydro-6H-pyrano[3,4-b]pyridin-5-yl)pyrido[4,3-c][1,7]naph-thyridine-9-carboxamide] | 23 nM | 611 nM
